Assay results as given in patent publication US9556170B2, “Substituted-1H-benzo[d]imidazole series compounds as lysine-specific demethylase 1 (LSD1) inhibitors” (University of Utah, priority 2013, dated 2017).

Biological target: LSD1 (Homo sapiens (Human), UniProt O60341)
Experiment: LSD1 histone demethylase assay (LSD1 Inhibitor Screening Assay Kit, Cayman Chemical)
Type: biochemical
Conditions: H2O2/resorufin fluorescence readout, dimethyl K4 H3 peptide substrate
Description: Recombinant (expressed in baculovirus infected BTI insect cells) monoamine oxidase A and monoamine oxidase B (Catalog No. M7316 and M7441, respectively) were purchased from Sigma-Aldrich Co. LLC. (St. Louis, Mo.). MAO-Glo™ Assay Kit was purchased from Promega Corporation (Madison, Wis.). ATPlite™ Luminescence Assay System (e.g. Catalog No. V1401) was purchased from PerkinElmer Inc. (Waltham, Mass.).
IC50 values are determined using GraphPad Prism 5 software. The data were entered as an X-Y plot into the software as percent inhibition for each concentration of the drug. The concentration values of the drug were log transformed and the nonlinear regression was carried out using the “sigmoidal dose-response (variable slope)” option within the GraphPad software to model the data and calculate IC50 values.

| SMILES | IC50 [µM] |
| --- | --- |
| CN1CCN(S(=O)(=O)c2ccc3[nH]c(Nc4cc(Cl)ccc4O)nc3c2)CC1 [Compound 2, 4-chloro-2-((5-((4-methylpiperazin-1-yl)sulfonyl)-1H-benzo[d]imidazol-2-yl)amino)phenol] | 0.273 |
| O=S(=O)(c1ccc2[nH]c(Nc3cc(Cl)ccc3O)nc2c1)N1CCNCC1 [Compound 3] | 0.081 |
